The molecules below were run on HCV 1b genotype (assay: HCV Replicon assay (HCV-neo replicon cells, wild-type)). Conditions: HCV 1b genotype replicon; range class A-D; read-out: 1b EC50 (in μM or range).
Format: cell-based
Protocol: An HCV Replicon assay was utilized in the present disclosure, and was prepared, conducted and validated as described in commonly owned PCT/US2006/022197 and in O′Boyle et. al. Antimicrob Agents Chemother, 2005 April; 49(4):1346-53. Assay methods incorporating luciferase reporters have also been used as described (Apath.com).
HCV-neo replicon cells and replicon cells containing mutations in the NS5A region were used to test the currently described family of compounds. The compounds were determined to have more than 10-fold less inhibitory activity on cells containing mutations than wild-type cells. Thus, the compounds of the present disclosure can be effective in inhibiting the function of the HCV NS5A protein and are understood to be as effective in combinations as previously described in application PCT/US2006/022197 and commonly owned WO/04014852. Further, the compounds of the present disclosure can be effective against the HCV 1b genotype. It should also be understood that the compounds of the present disclosure can inhibit multiple genotypes of HCV. […] In one embodiment, compounds of the present disclosure are inhibitory versus 1a, 1b, 2a, 2b, 3a, 4a, and 5a genotypes.

Row | SMILES | EC50 [nM]
1 | CN1Cc2ccccc2C1C(=O)N1CCC[C@H]1C(=O)Nc1ccc(C#Cc2ccc(NC(=O)[C@@H]3CCCN3C(=O)C3c4ccccc4CN3C)cc2)cc1 (stereo partly drawn) [VN39, (2S,2′S)-N,N′-(1,2-ethynediyldi-4,1-phenylene)bis(1-((2-methyl-2,3-dihydro-1H-isoindol-1-yl)carbonyl)-2-pyrrolidinecarboxamide)] | 100 to 999
2 | O=C1CN(C(C(=O)N2CCC[C@H]2C(=O)Nc2ccc(C#Cc3ccc(NC(=O)[C@@H]4CCCN4C(=O)C(c4ccccc4)N4CCNC(=O)C4)cc3)cc2)c2ccccc2)CCN1 (single isomer, unassigned) [VN33] | < 4.57
3 | C=Cc1cccnc1C(=O)N1CCC[C@H]1C(=O)Nc1ccc(C#Cc2ccc(NC(=O)[C@@H]3CCCN3C(=O)c3ncccc3C=C)cc2)cc1 [Example D36.3, (2S,2′S)-N,N′-(4,4′-(ethyne-1,2-diyl)bis(4,1-phenylene))bis(1-(3-vinylpicolinoyl)pyrrolidine-2-carboxamide)] | 100 to 999
4 | CCc1sc(Cl)nc1C(=O)N1CCC[C@H]1C(=O)Nc1ccc(C#Cc2ccc(NC(=O)[C@@H]3CCCN3C(=O)c3nc(Cl)sc3CC)cc2)cc1 [Example D36.1, (2S,2′S)-N,N′-(4,4′-(ethyne-1,2-diyl)bis(4,1-phenylene))bis(1-(2-chloro-5-ethylthiazole-4-carbonyl)pyrrolidine-2-carboxamide)] | 100 to 999
5 | CC(C)OC(=O)N[C@@H](C(=O)N1CCC[C@H]1C(=O)Nc1ccc(C#Cc2ccc(NC(=O)[C@@H]3CCCN3C(=O)[C@H](NC(=O)OC(C)C)c3ccccc3)cc2)cc1)c1ccccc1 [VN57, Diisopropyl (1,2-ethynediylbis(4,1-phenylenecarbamoyl(2S)-2,1-pyrrolidinediyl((1R)-2-oxo-1-phenyl-2,1-ethanediyl)))biscarbamate] | < 4.57
6 | O=C(Nc1ccc(C#Cc2ccc(NC(=O)[C@@H]3CCCN3C(=O)C(c3ccccc3)N3CC[C@@H](O)C3)cc2)cc1)[C@@H]1CCCN1C(=O)C(c1ccccc1)N1CC[C@@H](O)C1 (stereo partly drawn) [VN53, (2S,2′S)-N,N′-(1,2-ethynediyldi-4,1-phenylene)bis(1-(((3R)-3-hydroxy-1-pyrrolidinyl)(phenyl)acetyl)-2-pyrrolidinecarboxamide)] | 4.57 to 99

Same assay, conditions: Hepatitis C virus, HCV 1b genotype replicon; range class A-D; read-out: 1b EC50 (in μM or range)

Row | SMILES | EC50 [nM]
7 | O=C(Nc1ccc(C#Cc2ccc(NC(=O)[C@@H]3CCCN3C(=O)C(c3ccccc3)N3CC[C@H](O)C3)cc2)cc1)[C@@H]1CCCN1C(=O)C(c1ccccc1)N1CC[C@H](O)C1 (stereo partly drawn) [VN51, (2S,2′S)-N,N′-(1,2-ethynediyldi-4,1-phenylene)bis(1-(((3S)-3-hydroxy-1-pyrrolidinyl)(phenyl)acetyl)-2-pyrrolidinecarboxamide)] | 4.57 to 99
8 | O=C(Nc1ccc(C#Cc2ccc(NC(=O)[C@@H]3CCCN3C(=O)Cc3ccccc3)cc2)cc1)[C@@H]1CCCN1C(=O)Cc1ccccc1 [Example D2, (2S,2′S)-N,N′-(1,2-ethynediyldi-4,1-phenylene)bis(1-(phenylacetyl)-2-pyrrolidinecarboxamide)] | < 4.57
9 | O=C(Nc1ccc(C#Cc2ccc(NC(=O)[C@@H]3CCCN3C(=O)c3nccn3Cc3ccccc3)cc2)cc1)[C@@H]1CCCN1C(=O)c1nccn1Cc1ccccc1 [Example D29, (2S,2′S)-N,N′-(1,2-ethynediyldi-4,1-phenylene)bis(1-((1-benzyl-1H-imidazol-2-yl)carbonyl)-2-pyrrolidinecarboxamide)] | 100 to 999
10 | O=C(Nc1ccc(C#Cc2ccc(NC(=O)[C@@H]3CCCN3C(=O)[C@@H](c3ccccc3)N3CCOCC3)cc2)cc1)[C@@H]1CCCN1C(=O)[C@@H](c1ccccc1)N1CCOCC1 [VN13, (2S,2′S)-N,N′-(1,2-ethynediyldi-4,1-phenylene)bis(1-((2R)-2-(4-morpholinyl)-2-phenylacetyl)-2-pyrrolidinecarboxamide)] | < 4.57
11 | CC(=O)N1CCC[C@H]1C(=O)Nc1ccc(C#Cc2ccc(NC(=O)C3CC(=O)N(Cc4ccc(Cl)cc4)C3)cc2)cc1 (stereo partly drawn) [Example D13, 1-Acetyl-N-(4-((4-(((1-(4-chlorobenzyl)-5-oxo-3-pyrrolidinyl)carbonyl)amino)phenyl)ethynyl)phenyl)-L-prolinamide] | 1000 to 10000
12 | CN(C)C1(C(=O)N2CCC[C@H]2C(=O)Nc2ccc(C#Cc3ccc(NC(=O)[C@@H]4CCCN4C(=O)C4(N(C)C)Cc5ccccc5C4)cc3)cc2)Cc2ccccc2C1 [VN16, (2S,2′S)-N,N′-(1,2-ethynediyldi-4,1-phenylene)bis(1-((2-(dimethylamino)-2,3-dihydro-1H-inden-2-yl)carbonyl)-2-pyrrolidinecarboxamide)] | 4.57 to 99
13 | CC(C)(C)OC(=O)Nc1ccc(C#Cc2ccc(NC(=O)[C@@H]3CCCN3C(=O)[C@H](O)c3ccccc3)cc2)cc1 [Example D60.1, tert-Butyl 4-((4-((S)-1-((R)-2-hydroxy-2-phenylacetyl)pyrrolidine-2-carboxamido)phenyl)ethynyl)phenylcarbamate] | 100 to 999
14 | COc1cccc2c(C(=O)N3CCC[C@H]3C(=O)Nc3ccc(C#Cc4ccc(NC(=O)[C@@H]5CCCN5C(=O)Cc5cccnc5)cc4)cc3)nc(Cl)cc12 [Example D45, (2S)-1-((3-Chloro-5-methoxy-1-isoquinolinyl)carbonyl)-N-(4-((4-((((2S)-1-(3-pyridinylacetyl)-2-pyrrolidinyl)carbonyl)amino)phenyl)ethynyl)phenyl)-2-pyrrolidinecarboxamide] | 100 to 999
15 | O=C(Nc1ccc(C#Cc2ccc(NC(=O)[C@@H]3CCCN3C(=O)C3(c4ccccc4)CCCC3)cc2)cc1)[C@@H]1CCCN1C(=O)C1(c2ccccc2)CCCC1 [VN5, (2S,2′S)-N,N′-(1,2-ethynediyldi-4,1-phenylene)bis(1-((1-phenylcyclopentyl)carbonyl)-2-pyrrolidinecarboxamide)] | 4.57 to 99
16 | CC(=O)N1CCC[C@H]1C(=O)Nc1ccc(C#Cc2ccc(NC(=O)[C@@H]3CCCN3C(=O)Cc3cccnc3)nc2)cc1 [Example D57, (2S)-1-Acetyl-N-(4-((6-((((2S)-1-(3-pyridinylacetyl)-2-pyrrolidinyl)carbonyl)amino)-3-pyridinyl)ethynyl)phenyl)-2-pyrrolidinecarboxamide] | 1000 to 10000
17 | CN(C)[C@@H](Cc1ccccc1)C(=O)N1CCC[C@H]1C(=O)Nc1ccc(C#Cc2ccc(NC(=O)[C@@H]3CCCN3C(=O)[C@H](Cc3ccccc3)N(C)C)cc2)cc1 [VN29, (2S,2′S)-N,N′-(1,2-ethynediyldi-4,1-phenylene)bis(1-((2S)-2-(dimethylamino)-3-phenylpropanoyl)-2-pyrrolidinecarboxamide)] | 100 to 999
18 | CC(=O)N[C@@H](C(=O)N1CCC[C@H]1C(=O)Nc1ccc(C#Cc2ccc(NC(=O)[C@@H]3CCCN3C(=O)[C@H](NC(C)=O)c3ccccc3)cc2)cc1)c1ccccc1 [VN26, (2S,2′S)-N,N′-(1,2-ethynediyldi-4,1-phenylene)bis(1-((2R)-2-acetamido-2-phenylacetyl)-2-pyrrolidinecarboxamide)] | < 4.57
19 | O=C(Nc1ccc(C#Cc2ccc(NC(=O)[C@@H]3CCCN3C(=O)C3(c4ccccc4)CC3)cc2)cc1)[C@@H]1CCCN1C(=O)C1(c2ccccc2)CC1 [VN4, (2S,2′S)-N,N′-(1,2-ethynediyldi-4,1-phenylene)bis(1-((1-phenylcyclopropyl)carbonyl)-2-pyrrolidinecarboxamide)] | < 4.57
20 | O=C(Nc1ccc(C#Cc2ccc(NC(=O)[C@@H]3CCCN3C(=O)CC3CC3)cc2)cc1)[C@@H]1CCCN1C(=O)CC1CC1 [Example D37, (2S,2′S)-N,N′-(1,2-ethynediyldi-4,1-phenylene)bis(1-(cyclopropylacetyl)-2-pyrrolidinecarboxamide)] | 4.57 to 99
21 | O=C(Nc1ccc(C#Cc2ccc(NC(=O)[C@@H]3CCCN3C(=O)[C@H]3CCCO3)cc2)cc1)[C@@H]1CCCN1C(=O)[C@H]1CCCO1 [Example D26, (2S,2′S)-N,N′-(1,2-ethynediyldi-4,1-phenylene)bis(1-((2R)-tetrahydro-2-furanylcarbonyl)-2-pyrrolidinecarboxamide)] | 4.57 to 99

Same assay, conditions: Hepatitis C virus, HCV 1b genotype replicon; read-out: 1b EC50 (in μM or range)

Row | SMILES | EC50 [nM]
22 | O=C(Nc1ccc(C#Cc2ccc(NC(=O)[C@@H]3CCCN3C(=O)C(c3ccccc3)N3CC[C@H](O)C3)cc2)cc1)[C@@H]1CCCN1C(=O)C(c1ccccc1)N1CC[C@H](O)C1 (stereo partly drawn) [VN50, (2S,2′S)-N,N′-(1,2-ethynediyldi-4,1-phenylene)bis(1-(((3S)-3-hydroxy-1-pyrrolidinyl)(phenyl)acetyl)-2-pyrrolidinecarboxamide)] | 0.5
23 | Cn1c(C(=O)N2CCC[C@H]2C(=O)Nc2ccc(C#Cc3ccc(NC(=O)[C@@H]4CCCN4C(=O)c4cc5ccccc5n4C)cc3)cc2)cc2ccccc21 [Example D30, (2S,2′S)-N,N′-(1,2-ethynediyldi-4,1-phenylene)bis(1-((1-methyl-1H-indol-2-yl)carbonyl)-2-pyrrolidinecarboxamide)] | 1210
24 | O=CN[C@@H](C(=O)N1CCC[C@H]1C(=O)Nc1ccc(C#Cc2ccc(NC(=O)[C@@H]3CCCN3C(=O)[C@H](NC=O)c3ccccc3)cc2)cc1)c1ccccc1 [VN11, (2S,2′S)-N,N′-(1,2-ethynediyldi-4,1-phenylene)bis(1-((2R)-2-formamido-2-phenylacetyl)-2-pyrrolidinecarboxamide)] | 0.01

Same assay, conditions: Hepatitis C virus, read-out: 1b EC50 (in μM or range), HCV 1b genotype replicon

Row | SMILES | EC50 [nM]
25 | O=C(Nc1cncc(C#Cc2cncc(NC(=O)[C@@H]3CCCN3C(=O)Cc3ccccc3)c2)c1)[C@@H]1CCCN1C(=O)Cc1ccccc1 [YQ2, (2S,2′S)-N,N′-(1,2-ethynediyldi-5,3-pyridinediyl)bis(1-(phenylacetyl)-2-pyrrolidinecarboxamide)] | 523000
